One experiment has as its system Pseudomonas aeruginosa. As to conditions: fraction of MIC, Non Patent Literatures 4 and 5; cited from earlier work.
Experiment [1] has as its system Staphylococcus aureus ATCC25923. The experiment can be described thus: Colistin MIC with antibody, Staphylococcus aureus. The class given is cell-based. As to conditions: same in absence and presence of 10 μg/mL 4P41 LZ trimer. On the procedure: The minimum growth inhibitory concentration (MIC) of an antimicrobial agent was measured by a microbroth dilution method in accordance with the Clinical Laboratory Standards Institute (CLSI) guideline. The serially diluted antimicrobial agent was added to a 96-well round bottom microtiter plate (Watson Co., Ltd.) at 100 μL/well, and each bacterial strain was inoculated at 5×10^5 CFU/mL/well. As the antimicrobial agent, Aztreonam (Sigma-Aldrich), Amikacin (Sigma-Aldrich), Arbekacin (Meiji Seika Pharma Co., Ltd.), Ofloxacin (Sigma-Aldrich), colistin (Sigma-Aldrich), and Polymyxin B (Sigma-Aldrich) were used. Synergistic effect of an antibody and an antimicrobial agent was evaluated using a checkerboard dilution method. Each of the antimicrobial agents was serially two-fold diluted in the vertical direction in a 96-well round bottom titer plate to concentrations between 0.125 to 2 times the MIC. Subsequently, an antibody was serially two-fold diluted in the horizontal direction of the plate in a range of 0 to 10 μg/mL or 0 to 20 μg/mL. Each bacterial strain was inoculated at 5×10^5 CFU/mL/well.
A multidrug-resistant Pseudomonas aeruginosa NCGM2.S1 and drug-susceptible Pseudomonas aeruginosa PAO1 and OCR1 were cultured using Luria Bertani (LB) medium (BD) or an LB plate containing 15 g/L of agar at 37° C. […]

Experiment [2] relates to multidrug-resistant Pseudomonas aeruginosa NCGM2.S1. Nature of the experiment: Silkworm Pseudomonas aeruginosa infection model. Format: in vivo. As to conditions: colistin alone administration group, probit analysis.
Description: A: Overnight culture solution of NCGM2.S1 was diluted by 100 times and cultured for 16 hours and was then injected into hemolymph of silkworms on the 2nd day of the 5th instar, and 0.05 mL of colistin was then injected into the blood. The survival rates were measured over 96 hours. […] The survival rates were measured over 96 hours. […] The survival rates were measured over 96 hours.
Overnight culture solution of multidrug-resistant Pseudomonas aeruginosa NCGM2.S1 was diluted 100 times and was further cultured overnight. The bacterial culture solution was diluted with physiological saline (Otsuka Pharmaceutical Co., Ltd.), and 0.05 mL thereof was injected into hemolymph from the dorsal surface using a 1-mL injection syringe (Terumo Corporation) and 27-gauge syringe needle (Terumo Corporation), and the silkworm larvae were fed at 27° C. The median lethal dose was measured from the survival rate after 24 hours, and 0.05 mL of the bacteria in an amount 4 times the median lethal dose was injected to make a silkworm Pseudomonas aeruginosa infection model.
Experiment [3] concerns multidrug-resistant Pseudomonas aeruginosa strain NCGM2.S1. The experiment can be described thus: Drug susceptibility test (MIC, microbroth dilution, CLSI) with antibody added. Format: cell-based. As to conditions: NCGM2.S1, antibody 10 μg/mL, FIG. 14B. How it is done:
B: MIC of colistin in the presence of an antibody. The MIC of colistin in the presence of each antibody in NCGM2.S1 was measured by a microbroth dilution method in accordance with the CLSI guideline. […] As the negative control, a 4P6 trimer which is a human TRAIL-R1 VHH trimer was used.
The minimum growth inhibitory concentration (MIC) of an antimicrobial agent was measured by a microbroth dilution method in accordance with the Clinical Laboratory Standards Institute (CLSI) guideline. The serially diluted antimicrobial agent was added to a 96-well round bottom microtiter plate (Watson Co., Ltd.) at 100 μL/well, and each bacterial strain was inoculated at 5×10^5 CFU/mL/well. As the antimicrobial agent, Aztreonam (Sigma-Aldrich), Amikacin (Sigma-Aldrich), Arbekacin (Meiji Seika Pharma Co., Ltd.), Ofloxacin (Sigma-Aldrich), colistin (Sigma-Aldrich), and Polymyxin B (Sigma-Aldrich) were used. Synergistic effect of an antibody and an antimicrobial agent was evaluated using a checkerboard dilution method. Each of the antimicrobial agents was serially two-fold diluted in the vertical direction in a 96-well round bottom titer plate to concentrations between 0.125 to 2 times the MIC. Subsequently, an antibody was serially two-fold diluted in the horizontal direction of the plate in a range of 0 to 10 μg/mL or 0 to 20 μg/mL. Each bacterial strain was inoculated at 5×10^5 CFU/mL/well. […]

Experiment [4] concerns ovalbumin-loop 1 peptide (loop 1 of OprM). The experiment can be described thus: ELISA binding of VHH monomer to loop 1 antigen. Also on record: species or system Pseudomonas aeruginosa. As to conditions: purified monomer protein. On the procedure: In the anti-loop 1 VHH antibody, 0.1 M NaHCO3 (Blank), 0.1 M NaHCO3 containing […] of thyroglobulin, 0.1 M NaHCO3 containing 10 μg/mL of thyroglobulin-loop 1 peptide, or 0.1 M NaHCO3 containing 10 μg/mL of ovalbumin-loop 1 peptide was added to a 96-well immuno plate (Nunc) at 40 μL/well and was left to stand at 4° C. overnight.
In the anti-loop 2 VHH antibody, 0.1 M NaHCO3 (Blank), 0.1 M NaHCO3 containing […] of KLH-loop 2 peptide was added to a 96-well immuno plate (Nunc) at 40 μL/well and was left to stand at 4° C. overnight. SuperBlock-PBS (Thermo Fisher Scientific) was added to the plate at 350 μL/well and left to stand at room temperature for 1 hour. After washing with 400 μL/well of PBS-T (phosphate buffer saline containing 0.05% Tween 20), 40 µL/well of SuperBlock-TBS containing 0.2 μg/mL of the VHH antibody was added thereto, followed by reaction at room temperature for 1 hour. The wells were washed with 400 μL/well of PBS-T again three times, and 40 μL/well of anti-Myc mouse monoclonal antibody 9E10 (Santa Cruz Biotechnology Inc.) diluted 500 times with SuperBlock-TBS was added thereto, followed by reaction at room temperature for 1 hour. […] Subsequently, absorbance at 450 nm was measured, and the average and standard deviation were calculated of triplicate or quadruplicate measurement.

In the case of `c1ccc2c(CN3CCNCC3)cccc2c1` [NMP, 1-(1-naphthylmethyl)-piperazine], the “decrease of the MIC value of an antimicrobial agent in Pseudomonas aeruginosa” value in the experiment with Pseudomonas aeruginosa is “⅛”.

As to `c1ccc2c(c1)Nc1ccccc1S2` [phenothiazine], the “decrease of the MIC value of an antimicrobial agent in Pseudomonas aeruginosa” value with Pseudomonas aeruginosa is “⅛”.

Take colistin: the “MIC of colistin in Staphylococcus aureus” value in experiment [1] was over 128 µg/mL. The “therapeutically effective dose ED50 of colistin” value in experiment [2] is 124 μg/g body weight.

B1: 4P94 monomer: anti-loop 1 VHH antibody from alpaca, monomer with cMyc-Tag and His-Tag (protein)
VHH: EVQLVESGGGLVQAGNSLKLSCVVSGRTLRNYAMGWFRQAPLKEREFVAAIGWTTGTASYGTPTYSDSVKGRFTISRDNAGNTLYLLMNNLKPEDTAVYYCAAGLIGYFGDRISSASVYDGWGQGTQVTVSS
modifications: left off: small tags and cut ends
notes: anti-loop 1 VHH antibody from alpaca, monomer with cMyc-Tag and His-Tag
Turning to B1, the “change in MIC of colistin, antibody added at 10 μg/mL” value in experiment [3] is reported as “¼”. Also, the “binding to ovalbumin-loop 1 peptide” value in experiment [4] is “specifically bound”.

Source of the values: patent US20250136669A1, “VHH ANTIBODY” (TEIKYO HEISEI UNIVERSITY, priority 2021, published 2025).
